Measured values: ChEMBL document CHEMBL5696439 (Cancer Res, 2010)
Activity calls are given as the source filed them. The calls are words filed in the database; no cut-off is given here.

Columns and labels:
Rat1 = experiment: Inhibition of mTORC2 in rat Rat1 cells assessed as AKT phosphorylation at S473 level preincubated for 1 hrs in the presence of IGF-1 stimulation by immunoblot assay; assay type: cell-based; settings: dose 0.01-2 µmol/L
HCT-116 = experiment: Antiproliferative activity against human HCT-116 cells assessed as cell growth inhibition incubated for 24 hrs by MTS assay; assay type: functional, cell-based; settings: HCT-116, 24 h
[1] = target: Serine/threonine-protein kinase 3 (Homo sapiens) (UniProt Q13188); experiment: Inhibition of recombinant human full length GST-tagged STK3 expressed in insect cells at 2 uM using Ser/Thr 07 as substrate measured after 1 hr by Z'-LYTE assay relative to control; settings: Insect cell
MDA-MB-231 = experiment: Antiproliferative activity against human MDA-MB-231 cells assessed as cell growth inhibition incubated for 24 hrs by MTS assay; assay type: functional, cell-based; settings: MDA-MB-231, 24 h
[2] = target: Ephrin type-B receptor 3 (Homo sapiens) (UniProt P54753); experiment: Inhibition of recombinant human GST-tagged EPHB3 (623-907 residues) expressed in insect cells at 2 uM using Tyr 02 as substrate measured after 1 hr by Z'-LYTE assay relative to control; settings: Insect cell
Ephrin type-B receptor 3 (Homo sapiens), sequence (P54753 whole entry, the tested form may be a part): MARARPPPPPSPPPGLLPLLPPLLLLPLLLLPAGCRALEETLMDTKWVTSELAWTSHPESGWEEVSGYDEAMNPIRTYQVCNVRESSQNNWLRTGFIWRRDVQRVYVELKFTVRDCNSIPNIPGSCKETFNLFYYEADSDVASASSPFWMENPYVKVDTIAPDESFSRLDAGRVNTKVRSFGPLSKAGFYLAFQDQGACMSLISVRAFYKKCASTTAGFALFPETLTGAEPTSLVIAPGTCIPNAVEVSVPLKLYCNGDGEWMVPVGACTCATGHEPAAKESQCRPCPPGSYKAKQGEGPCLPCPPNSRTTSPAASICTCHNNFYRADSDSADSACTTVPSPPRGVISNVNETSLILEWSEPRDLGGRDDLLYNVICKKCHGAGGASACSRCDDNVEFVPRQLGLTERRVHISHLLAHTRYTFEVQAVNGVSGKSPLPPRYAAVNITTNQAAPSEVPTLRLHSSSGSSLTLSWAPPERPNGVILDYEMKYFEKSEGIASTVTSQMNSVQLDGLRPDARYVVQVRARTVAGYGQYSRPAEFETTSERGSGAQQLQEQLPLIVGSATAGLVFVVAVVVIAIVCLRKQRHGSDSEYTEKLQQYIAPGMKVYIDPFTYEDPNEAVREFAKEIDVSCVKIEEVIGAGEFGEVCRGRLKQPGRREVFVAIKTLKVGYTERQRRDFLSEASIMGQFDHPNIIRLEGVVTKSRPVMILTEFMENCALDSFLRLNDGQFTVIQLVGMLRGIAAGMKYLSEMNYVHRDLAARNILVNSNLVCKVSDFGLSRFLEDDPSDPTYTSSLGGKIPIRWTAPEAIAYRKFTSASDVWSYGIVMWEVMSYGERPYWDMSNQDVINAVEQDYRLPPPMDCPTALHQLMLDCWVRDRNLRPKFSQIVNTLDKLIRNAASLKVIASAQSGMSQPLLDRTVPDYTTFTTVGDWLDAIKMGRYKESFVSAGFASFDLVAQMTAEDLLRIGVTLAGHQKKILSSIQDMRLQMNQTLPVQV

[3] = target: Fibroblast growth factor receptor 3 (Homo sapiens) (UniProt P22607); experiment: Inhibition of recombinant human His-tagged FGFR3 (399-806 residues) expressed in insect cells at 2 uM using Tyr 04 as substrate measured after 1 hr by Z'-LYTE assay relative to control; settings: Insect cell
[4] = target: Tyrosine-protein kinase Fgr (Homo sapiens) (UniProt P09769); experiment: Inhibition of recombinant human full-length His-tagged FGR expressed in insect cells at 2 uM using Tyr 02 as substrate measured after 1 hr by Z'-LYTE assay relative to control; settings: Insect cell
Tyrosine-protein kinase Fgr (Homo sapiens), sequence (P09769 2-529 limits assumed): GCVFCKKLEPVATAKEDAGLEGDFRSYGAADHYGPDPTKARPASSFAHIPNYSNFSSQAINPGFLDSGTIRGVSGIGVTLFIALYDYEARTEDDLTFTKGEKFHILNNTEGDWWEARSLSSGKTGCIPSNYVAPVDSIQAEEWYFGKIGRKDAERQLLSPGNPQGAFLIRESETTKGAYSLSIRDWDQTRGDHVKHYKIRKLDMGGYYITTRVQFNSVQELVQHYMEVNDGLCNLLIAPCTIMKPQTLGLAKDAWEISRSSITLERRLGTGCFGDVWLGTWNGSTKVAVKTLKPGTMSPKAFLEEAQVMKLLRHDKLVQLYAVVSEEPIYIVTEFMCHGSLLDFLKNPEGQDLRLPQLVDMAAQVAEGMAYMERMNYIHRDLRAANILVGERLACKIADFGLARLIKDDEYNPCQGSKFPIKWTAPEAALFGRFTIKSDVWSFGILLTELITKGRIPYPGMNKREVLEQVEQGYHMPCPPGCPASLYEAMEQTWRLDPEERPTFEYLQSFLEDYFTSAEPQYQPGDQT

[5] = target: Serine/threonine-protein kinase mTOR (Homo sapiens, UniProt P42345); settings: HEK293, dose 0.1-1 nM, time 20.0 min
MDA-MB-361 [6] = experiment: Antiproliferative activity against human MDA-MB-361 cells assessed as cell growth inhibition incubated for 2 days by MTS assay; assay type: functional, cell-based; settings: MDA-MB-361, 48 h
[7] = target: cGMP-dependent protein kinase 1 (Homo sapiens) (UniProt Q13976); experiment: Inhibition of recombinant human full length GST-tagged PRKG1 expressed in baculovirus expression system at 2 uM using Ser/Thr 01 as substrate measured after 1 hr by Z'-LYTE assay relative to control
cGMP-dependent protein kinase 1 (Homo sapiens), sequence (Q13976 whole entry): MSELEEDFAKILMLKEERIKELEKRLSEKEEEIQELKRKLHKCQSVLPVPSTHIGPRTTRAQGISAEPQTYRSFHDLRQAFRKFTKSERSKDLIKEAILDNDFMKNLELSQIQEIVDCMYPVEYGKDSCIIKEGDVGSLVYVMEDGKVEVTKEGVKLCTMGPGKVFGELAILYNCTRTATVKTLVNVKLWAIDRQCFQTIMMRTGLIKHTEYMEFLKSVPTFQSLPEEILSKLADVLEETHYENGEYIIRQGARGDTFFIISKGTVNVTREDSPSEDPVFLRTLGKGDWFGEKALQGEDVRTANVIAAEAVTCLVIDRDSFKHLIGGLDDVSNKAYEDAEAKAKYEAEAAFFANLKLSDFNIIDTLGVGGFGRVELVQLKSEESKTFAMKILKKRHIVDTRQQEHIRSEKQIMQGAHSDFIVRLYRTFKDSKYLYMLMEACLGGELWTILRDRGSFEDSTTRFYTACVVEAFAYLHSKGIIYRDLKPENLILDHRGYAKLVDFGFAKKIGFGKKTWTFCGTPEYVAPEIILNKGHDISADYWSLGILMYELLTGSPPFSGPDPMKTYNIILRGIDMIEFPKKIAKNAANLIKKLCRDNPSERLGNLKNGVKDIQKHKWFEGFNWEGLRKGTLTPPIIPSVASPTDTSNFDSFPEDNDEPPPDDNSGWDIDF

MDA-MB-361 [8] = experiment: Antitumor activity against human MDA-MB-361 cells xenografted in female nude mouse model assessed as induction in PARP cleavage at 50 mg/kg, po qd administered as 5 days on/2 days off regimen for 4 cycles by immunoblot analysis; assay type: functional, organism-based; settings: time 28.0 day
NCI-H460 = experiment: Antiproliferative activity against human NCI-H460 cells assessed as cell growth inhibition incubated for 24 hrs by MTS assay; assay type: functional, cell-based; settings: NCI-H460, 24 h
[9] = target: Aurora kinase C (Homo sapiens) (UniProt Q9UQB9); experiment: Inhibition of recombinant human full-length GST-tagged AURKC expressed in insect cells at 2 uM using Ser/Thr 19 as substrate measured after 1 hr by Z'-LYTE assay relative to control; settings: Insect cell
Aurora kinase C (Homo sapiens), sequence (Q9UQB9 whole entry, the tested form may be a part): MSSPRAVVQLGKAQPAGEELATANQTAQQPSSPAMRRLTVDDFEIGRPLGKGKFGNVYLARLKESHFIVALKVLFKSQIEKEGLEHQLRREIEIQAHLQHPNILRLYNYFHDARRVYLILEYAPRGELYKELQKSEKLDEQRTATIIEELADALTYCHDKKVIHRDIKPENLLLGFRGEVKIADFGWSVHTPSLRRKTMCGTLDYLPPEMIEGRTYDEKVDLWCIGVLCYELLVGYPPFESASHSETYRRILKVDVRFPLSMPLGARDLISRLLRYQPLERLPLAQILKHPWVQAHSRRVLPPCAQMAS

[10] = target: Activin receptor type-1B (Homo sapiens) (UniProt P36896); experiment: Inhibition of recombinant human GST-tagged ACVR1B (150 to 505 residues) expressed in insect cells at 2 uM using Ser/Thr 16 as substrate measured after 1 hr by Z'-LYTE assay relative to control; settings: Insect cell
Activin receptor type-1B (Homo sapiens), sequence (P36896 whole entry, the tested form may be a part): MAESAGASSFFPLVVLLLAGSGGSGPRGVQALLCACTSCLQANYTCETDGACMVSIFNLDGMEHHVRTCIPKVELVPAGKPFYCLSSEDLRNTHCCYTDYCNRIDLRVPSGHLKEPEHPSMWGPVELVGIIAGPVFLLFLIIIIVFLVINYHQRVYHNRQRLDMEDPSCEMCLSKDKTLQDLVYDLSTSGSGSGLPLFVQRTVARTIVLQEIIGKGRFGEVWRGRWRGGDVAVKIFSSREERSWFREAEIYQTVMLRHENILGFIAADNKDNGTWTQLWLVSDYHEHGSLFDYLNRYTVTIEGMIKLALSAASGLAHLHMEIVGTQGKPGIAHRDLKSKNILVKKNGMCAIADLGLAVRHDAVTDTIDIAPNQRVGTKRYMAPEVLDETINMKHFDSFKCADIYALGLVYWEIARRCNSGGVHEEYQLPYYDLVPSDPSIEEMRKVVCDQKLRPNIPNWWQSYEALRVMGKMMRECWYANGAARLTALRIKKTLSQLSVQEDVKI

[11] = target: Serine/threonine-protein kinase Nek6 (Homo sapiens) (UniProt Q9HC98); experiment: Inhibition of recombinant human full length GST-tagged NEK6 expressed in insect cells at 2 uM using Ser/Thr 22 as substrate measured after 1 hr by Z'-LYTE assay relative to control; settings: Insect cell
[12] = target: Beta-adrenergic receptor kinase 1 (Homo sapiens) (UniProt P25098); experiment: Inhibition of recombinant human full-length His-tagged ADRBK1 expressed in insect cells at 2 uM using Ser/Thr 16 as substrate measured after 1 hr by Z'-LYTE assay relative to control; settings: Insect cell
[13] = target: Mitogen-activated protein kinase kinase kinase 8 (Homo sapiens) (UniProt P41279); experiment: Inhibition of recombinant human GST-tagged MAP3K8 (30-397 residues) expressed in insect cells at 2 uM using Ser/Thr 03 as substrate measured after 1 hr by Z'-LYTE assay relative to control; settings: Insect cell
[14] = target: Macrophage colony-stimulating factor 1 receptor (Homo sapiens) (UniProt P07333); experiment: Inhibition of recombinant human His-tagged CSF1R (538-910 residues) expressed in baculovirus expression system at 2 uM using Tyr 01 as substrate measured after 1 hr by Z'-LYTE assay relative to control
MDA-MB-361 [15] = experiment: Induction of apoptosis in HER2 hyperactive human MDA-MB-361 cells assessed as massive cell death at 0.001 to 100 micromol/L incubated for 48 hrs by FACS analysis; assay type: functional, cell-based; settings: dose 0.001-100 µmol/L
MDA-MB-361 [16] = experiment: Inhibition of protein synthesis in human MDA-MB-361 cells at 3 micromol/L incubated for 3 hrs by [3H] methionine incorporation based scintillation counter analysis relative to control; assay type: functional; settings: MDA-MB-361, 3 h, dose 3 µmol/L
[17] = target: Tyrosine-protein kinase JAK2 (Homo sapiens) (UniProt O60674); experiment: Inhibition of recombinant human GST-tagged JAK2 JH1 JH2 domains (532-1132 residues) expressed in insect cells at 2 uM using Tyr 06 as substrate measured after 1 hr by Z'-LYTE assay relative to control; settings: Insect cell
Tyrosine-protein kinase JAK2 (Homo sapiens), sequence (O60674 whole entry, the tested form may be a part): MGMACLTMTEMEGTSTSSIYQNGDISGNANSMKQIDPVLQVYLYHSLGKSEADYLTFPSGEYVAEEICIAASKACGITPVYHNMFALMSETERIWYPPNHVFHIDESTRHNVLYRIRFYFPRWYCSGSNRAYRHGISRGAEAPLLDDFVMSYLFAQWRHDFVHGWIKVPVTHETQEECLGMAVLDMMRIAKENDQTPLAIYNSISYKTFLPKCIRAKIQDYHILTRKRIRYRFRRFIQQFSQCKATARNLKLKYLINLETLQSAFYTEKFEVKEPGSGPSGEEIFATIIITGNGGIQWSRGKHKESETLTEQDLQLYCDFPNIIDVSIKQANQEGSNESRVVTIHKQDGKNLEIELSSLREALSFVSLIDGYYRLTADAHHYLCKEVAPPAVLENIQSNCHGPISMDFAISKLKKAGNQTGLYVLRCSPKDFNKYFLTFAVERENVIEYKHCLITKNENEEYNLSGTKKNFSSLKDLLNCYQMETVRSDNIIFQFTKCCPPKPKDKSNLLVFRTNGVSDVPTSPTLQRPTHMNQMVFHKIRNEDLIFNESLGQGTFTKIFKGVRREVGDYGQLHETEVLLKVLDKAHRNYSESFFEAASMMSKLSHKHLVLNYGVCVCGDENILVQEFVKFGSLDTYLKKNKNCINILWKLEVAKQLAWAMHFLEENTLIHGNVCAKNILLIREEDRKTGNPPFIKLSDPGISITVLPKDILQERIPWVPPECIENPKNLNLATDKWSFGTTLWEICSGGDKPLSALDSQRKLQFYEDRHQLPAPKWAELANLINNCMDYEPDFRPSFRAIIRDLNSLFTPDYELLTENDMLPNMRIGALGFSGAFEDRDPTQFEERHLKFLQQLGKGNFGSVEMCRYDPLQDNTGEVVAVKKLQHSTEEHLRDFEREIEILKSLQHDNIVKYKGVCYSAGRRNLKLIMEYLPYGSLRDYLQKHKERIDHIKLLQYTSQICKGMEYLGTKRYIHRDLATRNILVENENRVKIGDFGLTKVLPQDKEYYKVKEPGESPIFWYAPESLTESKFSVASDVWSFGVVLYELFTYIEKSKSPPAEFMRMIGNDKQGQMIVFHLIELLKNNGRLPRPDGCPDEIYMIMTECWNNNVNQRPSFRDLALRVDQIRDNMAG

MDA-MB-361 [18] = experiment: Antitumor activity against human MDA-MB-361 cells xenografted in female nude mouse model assessed as P-AKT at T308 level at 6 to 12 mg/kg, po qd administered as 5 days on/2 days off regimen for 4 cycles by immunoblot analysis; assay type: functional, organism-based; settings: dose 6-12 mg/kg, time 28.0 day
[19] = target: Tyrosine-protein kinase ITK/TSK (Homo sapiens) (UniProt Q08881); experiment: Inhibition of recombinant human full-length GST-tagged ITK expressed in insect cells at 2 uM using Tyr 01 as substrate measured after 1 hr by Z'-LYTE assay relative to control; settings: Insect cell
Tyrosine-protein kinase ITK/TSK (Homo sapiens), sequence (Q08881 whole entry, the tested form may be a part): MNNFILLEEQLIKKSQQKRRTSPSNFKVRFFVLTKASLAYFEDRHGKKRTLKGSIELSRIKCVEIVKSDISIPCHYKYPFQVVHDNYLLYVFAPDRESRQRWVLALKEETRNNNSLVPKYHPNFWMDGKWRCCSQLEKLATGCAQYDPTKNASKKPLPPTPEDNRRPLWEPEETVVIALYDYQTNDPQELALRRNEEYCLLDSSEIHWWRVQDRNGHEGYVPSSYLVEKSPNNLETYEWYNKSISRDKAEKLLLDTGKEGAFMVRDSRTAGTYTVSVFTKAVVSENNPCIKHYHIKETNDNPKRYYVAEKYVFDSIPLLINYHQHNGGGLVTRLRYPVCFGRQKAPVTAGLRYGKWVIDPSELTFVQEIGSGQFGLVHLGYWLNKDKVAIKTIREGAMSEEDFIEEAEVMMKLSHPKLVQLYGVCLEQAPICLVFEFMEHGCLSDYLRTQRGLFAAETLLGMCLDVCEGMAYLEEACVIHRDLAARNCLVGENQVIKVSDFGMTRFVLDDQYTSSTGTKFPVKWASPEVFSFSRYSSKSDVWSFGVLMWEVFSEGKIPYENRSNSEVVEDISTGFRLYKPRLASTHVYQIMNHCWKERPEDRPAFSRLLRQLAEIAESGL

[20] = target: Epidermal growth factor receptor (Homo sapiens) (UniProt P00533); experiment: Inhibition of recombinant human GST-tagged EGFR (668-1210 residues) expressed in insect cells at 2 uM using Tyr 04 as substrate measured after 1 hr by Z'-LYTE assay relative to control; settings: Insect cell
[21] = target: Serine/threonine-protein kinase ATR (Homo sapiens, UniProt Q13535); experiment: Inhibition of ATR (unknown origin) using glutathione S-transferase-p53 as substrate by DELFIA
[22] = target: PAS domain-containing serine/threonine-protein kinase (Homo sapiens) (UniProt Q96RG2); experiment: Inhibition of recombinant human GST-tagged PASK (879-1323 residues) expressed in insect cells at 2 uM using Ser/Thr 07 as substrate measured after 1 hr by Z'-LYTE assay relative to control; settings: Insect cell

CNC(=O)Nc1ccc(-c2nc(N3CC4CCC(C3)O4)c3cnn(C4CCC5(CC4)OCCO5)c3n2)cc1
inhibition (Rat1): Active | IC50 (HCT-116): 0.38 µM | inhibition [1]: 0% | IC50 (MDA-MB-231): 0.06 µM | inhibition [2]: 3% | inhibition [3]: 5% | inhibition [4]: 1% | inhibition [5]: Active | IC50 (MDA-MB-361 [6]): 0.05 µM | inhibition [7]: 1% | Activity (MDA-MB-361 [8]): Active | IC50 (NCI-H460): 0.3 µM | inhibition [9]: 4% | inhibition [10]: 3% | inhibition [11]: 12% | inhibition [12]: -1% | inhibition [13]: 1% | inhibition [14]: 7% | Activity (MDA-MB-361 [15]): Active | inhibition at 3 µM (MDA-MB-361 [16]): ~50% | inhibition [17]: 2% | Activity (MDA-MB-361 [18]): inactive | inhibition [19]: 2% | inhibition [20]: 1% | IC50 [21]: > 10 µM | inhibition [22]: 3%
